Experimental data reported in PubChem BioAssay (NCI).
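These data come from cells grown in 96-well plates and exposed to compound for 48 hours at five concentrations. At the GI50, growth is halved. TGI: concentration producing complete growth inhibition.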

Key:
Assay in all cases: inhibition of tumour cell growth, NCI panel, 48 h
SN12C renal = tested on: SN12C renal
UO-31 renal = tested on: UO-31 renal
HS 578T breast = tested on: HS 578T breast
COLO 205 colon = tested on: COLO 205 colon
TK-10 renal = tested on: TK-10 renal
OVCAR-8 ovarian = tested on: OVCAR-8 ovarian
NCI-H522 lung = tested on: NCI-H522 lung
BT-549 breast = tested on: BT-549 breast
SF-268 CNS = tested on: SF-268 CNS
SW-620 colon = tested on: SW-620 colon
MCF7 breast = tested on: MCF7 breast
MALME-3M melanoma = tested on: MALME-3M melanoma
SR leukemia = tested on: SR leukemia
OVCAR-3 ovarian = tested on: OVCAR-3 ovarian
SNB-19 CNS = tested on: SNB-19 CNS
NCI/ADR-RES ovarian = tested on: NCI/ADR-RES ovarian
MDA-MB-231 breast = tested on: MDA-MB-231 breast
HOP-92 NSCLC = tested on: HOP-92 NSCLC
MDA-MB-435 = tested on: MDA-MB-435
786-0 renal = tested on: 786-0 renal
HCC-2998 colon = tested on: HCC-2998 colon
OVCAR-5 ovarian = tested on: OVCAR-5 ovarian
HOP-62 NSCLC = tested on: HOP-62 NSCLC
SNB-75 CNS = tested on: SNB-75 CNS
SK-MEL-5 melanoma = tested on: SK-MEL-5 melanoma
NCI-H23 lung = tested on: NCI-H23 lung
OVCAR-4 ovarian = tested on: OVCAR-4 ovarian
UACC-257 melanoma = tested on: UACC-257 melanoma
MOLT-4 leukemia = tested on: MOLT-4 leukemia
NCI-H226 lung = tested on: NCI-H226 lung
CCRF-CEM leukemia = tested on: CCRF-CEM leukemia
LOX IMVI melanoma = tested on: LOX IMVI melanoma
NCI-H460 lung = tested on: NCI-H460 lung
IGROV1 ovarian = tested on: IGROV1 ovarian
RXF 393 renal = tested on: RXF 393 renal
RPMI-8226 leukemia = tested on: RPMI-8226 leukemia
A498 renal = tested on: A498 renal
DU-145 prostate = tested on: DU-145 prostate
HCT-15 colon = tested on: HCT-15 colon
T-47D breast = tested on: T-47D breast
KM12 colon = tested on: KM12 colon
M14 melanoma = tested on: M14 melanoma
SF-539 CNS = tested on: SF-539 CNS
UACC-62 melanoma = tested on: UACC-62 melanoma
PC-3 prostate = tested on: PC-3 prostate
A549 NSCLC = tested on: A549 NSCLC
U251 CNS = tested on: U251 CNS
K-562 leukemia = tested on: K-562 leukemia
HT29 colon = tested on: HT29 colon
SK-MEL-28 melanoma = tested on: SK-MEL-28 melanoma
SK-OV-3 ovarian = tested on: SK-OV-3 ovarian
CAKI-1 renal = tested on: CAKI-1 renal
HL-60(TB) leukemia = tested on: HL-60(TB) leukemia
HCT-116 colon = tested on: HCT-116 colon
SK-MEL-2 melanoma = tested on: SK-MEL-2 melanoma
ACHN renal = tested on: ACHN renal
EKVX NSCLC = tested on: EKVX NSCLC
SF-295 CNS = tested on: SF-295 CNS

Structure (SMILES): COc1ccc(-c2nc(-c3nc4ccc(C)cc4[nH]3)c3ccccn23)cc1
- GI50 (SN12C renal): 3.08 µM
- TGI (SN12C renal): > 100 µM
- GI50 (UO-31 renal): 1.67 µM
- TGI (UO-31 renal): 6.09 µM
- GI50 (HS 578T breast): 2.17 µM
- TGI (HS 578T breast): 6.05 µM
- GI50 (COLO 205 colon): 3.23 µM
- TGI (COLO 205 colon): > 100 µM
- GI50 (TK-10 renal): 3.39 µM
- TGI (TK-10 renal): 9.22 µM
- GI50 (OVCAR-8 ovarian): 2.05 µM
- TGI (OVCAR-8 ovarian): 6.15 µM
- GI50 (NCI-H522 lung): 1.95 µM
- TGI (NCI-H522 lung): 4.63 µM
- GI50 (BT-549 breast): 2.55 µM
- TGI (BT-549 breast): 6.36 µM
- GI50 (SF-268 CNS): 2.8 µM
- TGI (SF-268 CNS): > 100 µM
- GI50 (SW-620 colon): 3.12 µM
- TGI (SW-620 colon): > 100 µM
- GI50 (MCF7 breast): 2.7 µM
- TGI (MCF7 breast): > 100 µM
- GI50 (MALME-3M melanoma): 2.83 µM
- TGI (MALME-3M melanoma): 8.62 µM
- GI50 (SR leukemia): 2.77 µM
- TGI (SR leukemia): > 100 µM
- GI50 (OVCAR-3 ovarian): 2.99 µM
- TGI (OVCAR-3 ovarian): 10.2 µM
- GI50 (SNB-19 CNS): 2.97 µM
- TGI (SNB-19 CNS): > 100 µM
- GI50 (NCI/ADR-RES ovarian): 2.71 µM
- TGI (NCI/ADR-RES ovarian): 8.06 µM
- GI50 (MDA-MB-231 breast): 3.09 µM
- TGI (MDA-MB-231 breast): > 100 µM
- GI50 (HOP-92 NSCLC): 0.416 µM
- TGI (HOP-92 NSCLC): 4.36 µM
- GI50 (MDA-MB-435): 2.3 µM
- TGI (MDA-MB-435): 8.46 µM
- GI50 (786-0 renal): 3.67 µM
- TGI (786-0 renal): > 100 µM
- GI50 (HCC-2998 colon): 2.93 µM
- TGI (HCC-2998 colon): 7.01 µM
- GI50 (OVCAR-5 ovarian): 4.69 µM
- TGI (OVCAR-5 ovarian): > 100 µM
- GI50 (HOP-62 NSCLC): 3.72 µM
- TGI (HOP-62 NSCLC): > 100 µM
- GI50 (SNB-75 CNS): 5.49 µM
- TGI (SNB-75 CNS): > 100 µM
- GI50 (SK-MEL-5 melanoma): 1.39 µM
- TGI (SK-MEL-5 melanoma): 2.72 µM
- GI50 (NCI-H23 lung): 3.85 µM
- TGI (NCI-H23 lung): > 100 µM
- GI50 (OVCAR-4 ovarian): 3.81 µM
- TGI (OVCAR-4 ovarian): > 100 µM
- GI50 (UACC-257 melanoma): 2.41 µM
- TGI (UACC-257 melanoma): 6.17 µM
- GI50 (MOLT-4 leukemia): 2.17 µM
- TGI (MOLT-4 leukemia): 7.99 µM
- GI50 (NCI-H226 lung): 3.88 µM
- TGI (NCI-H226 lung): > 100 µM
- GI50 (CCRF-CEM leukemia): 1.97 µM
- TGI (CCRF-CEM leukemia): 6.28 µM
- GI50 (LOX IMVI melanoma): 3.03 µM
- TGI (LOX IMVI melanoma): 7.73 µM
- GI50 (NCI-H460 lung): 2.28 µM
- TGI (NCI-H460 lung): 6.11 µM
- GI50 (IGROV1 ovarian): 2.18 µM
- TGI (IGROV1 ovarian): 6.12 µM
- GI50 (RXF 393 renal): 7.73 µM
- TGI (RXF 393 renal): > 100 µM
- GI50 (RPMI-8226 leukemia): 1.47 µM
- TGI (RPMI-8226 leukemia): 3.93 µM
- GI50 (A498 renal): 2.47 µM
- TGI (A498 renal): 9.65 µM
- GI50 (DU-145 prostate): 2.85 µM
- TGI (DU-145 prostate): > 100 µM
- GI50 (HCT-15 colon): 2.83 µM
- TGI (HCT-15 colon): > 100 µM
- GI50 (T-47D breast): 2.27 µM
- TGI (T-47D breast): 8.06 µM
- GI50 (KM12 colon): 2.38 µM
- TGI (KM12 colon): 9.07 µM
- GI50 (M14 melanoma): 3.15 µM
- TGI (M14 melanoma): 8.6 µM
- GI50 (SF-539 CNS): 3.32 µM
- TGI (SF-539 CNS): > 100 µM
- GI50 (UACC-62 melanoma): 2.14 µM
- TGI (UACC-62 melanoma): 5.66 µM
- GI50 (PC-3 prostate): 1.88 µM
- TGI (PC-3 prostate): 7.68 µM
- GI50 (A549 NSCLC): 2.67 µM
- TGI (A549 NSCLC): > 100 µM
- GI50 (U251 CNS): 3.27 µM
- TGI (U251 CNS): > 100 µM
- GI50 (K-562 leukemia): 2.92 µM
- TGI (K-562 leukemia): > 100 µM
- GI50 (HT29 colon): 3.36 µM
- TGI (HT29 colon): > 100 µM
- GI50 (SK-MEL-28 melanoma): 4.61 µM
- TGI (SK-MEL-28 melanoma): > 100 µM
- GI50 (SK-OV-3 ovarian): 6.95 µM
- TGI (SK-OV-3 ovarian): > 100 µM
- GI50 (CAKI-1 renal): 2.83 µM
- TGI (CAKI-1 renal): > 100 µM
- GI50 (HL-60(TB) leukemia): 2.58 µM
- TGI (HL-60(TB) leukemia): 6.53 µM
- GI50 (HCT-116 colon): 3.26 µM
- TGI (HCT-116 colon): 9.46 µM
- GI50 (SK-MEL-2 melanoma): 2.51 µM
- TGI (SK-MEL-2 melanoma): 5.71 µM

Structure (SMILES): COc1ccc(OC)c2c1C(=O)C(Cl)=C(N1CCN(CCOCCO)CC1)C2=O
- TGI (ACHN renal): 30.3 µM
- TGI (SN12C renal): 25.5 µM
- TGI (UO-31 renal): 29.9 µM
- TGI (HS 578T breast): 38.2 µM
- TGI (TK-10 renal): 33.4 µM
- TGI (OVCAR-8 ovarian): 30.9 µM
- TGI (EKVX NSCLC): 35.5 µM
- TGI (NCI-H522 lung): 20.9 µM
- TGI (BT-549 breast): 28 µM
- TGI (SF-268 CNS): 29.5 µM
- TGI (SW-620 colon): 28.7 µM
- TGI (MCF7 breast): 15 µM
- TGI (MALME-3M melanoma): 34.9 µM
- TGI (SR leukemia): 29.3 µM
- TGI (OVCAR-3 ovarian): 31.1 µM
- TGI (SNB-19 CNS): 29.5 µM
- TGI (NCI/ADR-RES ovarian): 59 µM
- TGI (MDA-MB-231 breast): 27.7 µM
- TGI (HOP-92 NSCLC): 31.8 µM
- TGI (MDA-MB-435): 27.9 µM
- TGI (786-0 renal): 13.3 µM
- TGI (HCC-2998 colon): 24.9 µM
- TGI (OVCAR-5 ovarian): 37.3 µM
- TGI (HOP-62 NSCLC): 22.7 µM
- TGI (SNB-75 CNS): 29.3 µM
- TGI (SK-MEL-5 melanoma): 31.3 µM
- TGI (SF-295 CNS): 32.9 µM
- TGI (NCI-H23 lung): 21.6 µM
- TGI (OVCAR-4 ovarian): 32 µM
- TGI (UACC-257 melanoma): 33 µM
- TGI (MOLT-4 leukemia): 32.8 µM
- TGI (NCI-H226 lung): 39.5 µM
- TGI (CCRF-CEM leukemia): 14.1 µM
- TGI (NCI-H460 lung): 38 µM
- TGI (RXF 393 renal): 33.4 µM
- TGI (RPMI-8226 leukemia): 26.5 µM
- TGI (A498 renal): 30.5 µM
- TGI (DU-145 prostate): 32.8 µM
- TGI (HCT-15 colon): 18.4 µM
- TGI (T-47D breast): 13.1 µM
- TGI (KM12 colon): 37.2 µM
- TGI (M14 melanoma): 31.7 µM
- TGI (SF-539 CNS): 32.8 µM
- TGI (UACC-62 melanoma): 15.5 µM
- TGI (PC-3 prostate): 16 µM
- TGI (A549 NSCLC): 39 µM
- TGI (U251 CNS): 41.3 µM
- TGI (K-562 leukemia): 4.24 µM
- TGI (HT29 colon): 19.8 µM
- TGI (SK-MEL-28 melanoma): 30.9 µM
- TGI (SK-OV-3 ovarian): 34 µM
- TGI (HL-60(TB) leukemia): 3.33 µM
- TGI (HCT-116 colon): 17 µM
